# Measurements from patent US9149038B2, “4-amino-6-(heterocyclic)picolinates and 6-amino-2-(heterocyclic)pyrimidine-4-carboxylates and their use as herbicides” (Dow AgroSciences LLC, priority 2013, dated 2015).
# Read-outs that look alike come from different tables or passages of the source.
# Tested on: Direct Seeded Rice and weed species
# Assay: Postemergence herbicidal activity in direct seeded rice, visual rating after 20-22 days and probit GR20/GR50/GR80/GR90 (Table 14)
# Format: in vivo
# Conditions: for pest or weed control at 17.5 g/ha / pest or weed control at 35 g/ha / pest or weed control at 70 g/ha: post-emergence, 504 h, postemergence; for pest or weed control at 17.5 g/ha: 17.5 g ai/ha; for pest or weed control at 35 g/ha: 35 g ai/ha; for pest or weed control at 70 g/ha: 70 g ai/ha
# Summary of the method: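 Rice and weeds grown in loam–sand soil (pH about 8.1) in greenhouse to 2nd–3rd true leaf, then sprayed postemergence at 187 L/ha in acetone/DMSO with 1.25% (v/v) Agri-dex crop oil. Injury rated visually 0–100 after 20-22 days versus untreated plants; GR20, GR50, GR80, GR90 obtained by probit analysis across dose rates.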
# [1] = BRAPP (broadleaf signalgrass, Brachiaria platyphylla), read-out: Visual Growth Reduction (%) 21 Days After Application BRAPP
# [2] = CYPDI (small-flower flatsedge, Cyperus difformis), read-out: Visual Growth Reduction (%) 21 Days After Application CYPDI
# [3] = CYPES (yellow nutsedge, Cyperus esculentus), read-out: Visual Growth Reduction (%) 21 Days After Application CYPES
# [4] = CYPIR (rice flatsedge, Cyperus iria), read-out: Visual Growth Reduction (%) 21 Days After Application CYPIR
# [5] = DIGSA (large crabgrass, Digitaria sanguinalis), read-out: Visual Growth Reduction (%) 21 Days After Application DIGSA
# [6] = ECHCG (barnyardgrass, Echinochloa crus-galli), read-out: Visual Growth Reduction (%) 21 Days After Application ECHCG
# [7] = ECHCO (junglerice, Echinochloa colonum), read-out: Visual Growth Reduction (%) 21 Days After Application ECHCO
# [8] = LEFCH (Chinese sprangletop, Leptochloa chinensis), read-out: Visual Growth Reduction (%) 21 Days After Application LEFCH
# [9] = ORYSJ (Oryza sativa, rice crop), read-out: Visual Growth Reduction (%) 21 Days After Application ORYSJ
# [10] = ORYSK (Oryza sativa, rice crop), read-out: Visual Growth Reduction (%) 21 Days After Application ORYSK
# [11] = SCPJU (Japanese bulrush, Schoenoplectus juncoides Roxb.), read-out: Visual Growth Reduction (%) 21 Days After Application SCPJU
# [12] = SEBEX (hemp sesbania, Sesbania exaltata), read-out: Visual Growth Reduction (%) 21 Days After Application SEBEX
compound,measurement,setting,value
COc1c(C(=O)O)nc(-c2ccc3c(c2)OC(F)(F)O3)c(F)c1N [Compound 25],GR50 BRAPP,"BRAPP (Brachiaria platyphylla), probit analysis, dose for 50 percent growth reduction",4 g ai/ha
same,GR80 BRAPP,"BRAPP (Brachiaria platyphylla), probit analysis, dose for 80 percent growth reduction",9 g ai/ha
same,GR90 BRAPP,"BRAPP (Brachiaria platyphylla), probit analysis, dose for 90 percent growth reduction",13 g ai/ha
same,GR50 CYPDI,"CYPDI (Cyperus difformis), probit analysis, dose for 50 percent growth reduction",0.04 g ai/ha
same,GR80 CYPDI,"CYPDI (Cyperus difformis), probit analysis, dose for 80 percent growth reduction",1 g ai/ha
same,GR90 CYPDI,"CYPDI (Cyperus difformis), probit analysis, dose for 90 percent growth reduction",2 g ai/ha
same,GR50 CYPES,"CYPES (Cyperus esculentus), probit analysis, dose for 50 percent growth reduction",0.04 g ai/ha
same,GR80 CYPES,"CYPES (Cyperus esculentus), probit analysis, dose for 80 percent growth reduction",1 g ai/ha
same,GR90 CYPES,"CYPES (Cyperus esculentus), probit analysis, dose for 90 percent growth reduction",1 g ai/ha
same,GR50 CYPIR,"CYPIR (Cyperus iria), probit analysis, dose for 50 percent growth reduction",2 g ai/ha
same,GR80 CYPIR,"CYPIR (Cyperus iria), probit analysis, dose for 80 percent growth reduction",5 g ai/ha
same,GR90 CYPIR,"CYPIR (Cyperus iria), probit analysis, dose for 90 percent growth reduction",9 g ai/ha
same,GR50 DIGSA,"DIGSA (Digitaria sanguinalis), probit analysis, dose for 50 percent growth reduction",27 g ai/ha
same,GR80 DIGSA,"DIGSA (Digitaria sanguinalis), probit analysis, dose for 80 percent growth reduction",2530 g ai/ha
same,GR90 DIGSA,"DIGSA (Digitaria sanguinalis), probit analysis, dose for 90 percent growth reduction",27000 g ai/ha
same,GR50 ECHCG,"ECHCG (Echinochloa crus-galli), probit analysis, dose for 50 percent growth reduction",0.025 g ai/ha
same,GR80 ECHCG,"ECHCG (Echinochloa crus-galli), probit analysis, dose for 80 percent growth reduction",1 g ai/ha
same,GR90 ECHCG,"ECHCG (Echinochloa crus-galli), probit analysis, dose for 90 percent growth reduction",3 g ai/ha
same,GR50 ECHCO,"ECHCO (Echinochloa colonum), probit analysis, dose for 50 percent growth reduction",2 g ai/ha
same,GR80 ECHCO,"ECHCO (Echinochloa colonum), probit analysis, dose for 80 percent growth reduction",4 g ai/ha
same,GR90 ECHCO,"ECHCO (Echinochloa colonum), probit analysis, dose for 90 percent growth reduction",6 g ai/ha
same,GR50 LEFCH,"LEFCH (Leptochloa chinensis), probit analysis, dose for 50 percent growth reduction",175 g ai/ha
same,GR80 LEFCH,"LEFCH (Leptochloa chinensis), probit analysis, dose for 80 percent growth reduction",463 g ai/ha
same,GR90 LEFCH,"LEFCH (Leptochloa chinensis), probit analysis, dose for 90 percent growth reduction",770 g ai/ha
same,GR20 ORYSJ,"ORYSJ (Oryza sativa, rice crop), probit analysis, dose for 20 percent growth reduction",1 g ai/ha
same,GR20 ORYSK,"ORYSK (Oryza sativa, rice crop), probit analysis, dose for 20 percent growth reduction",3 g ai/ha
same,GR50 SCPJU,"SCPJU (Schoenoplectus juncoides Roxb.), probit analysis, dose for 50 percent growth reduction",0.0001 g ai/ha
same,GR80 SCPJU,"SCPJU (Schoenoplectus juncoides Roxb.), probit analysis, dose for 80 percent growth reduction",0.0001 g ai/ha
same,GR90 SCPJU,"SCPJU (Schoenoplectus juncoides Roxb.), probit analysis, dose for 90 percent growth reduction",0.0001 g ai/ha
same,GR50 SEBEX,"SEBEX (Sesbania exaltata), probit analysis, dose for 50 percent growth reduction",19 g ai/ha
same,GR80 SEBEX,"SEBEX (Sesbania exaltata), probit analysis, dose for 80 percent growth reduction",26 g ai/ha
same,GR90 SEBEX,"SEBEX (Sesbania exaltata), probit analysis, dose for 90 percent growth reduction",30 g ai/ha
same,pest or weed control at 17.5 g/ha,[1],95 to 100%
same,pest or weed control at 35 g/ha,[1],95 to 100%
same,pest or weed control at 70 g/ha,[1],95 to 100%
same,pest or weed control at 17.5 g/ha,[2],95 to 100%
same,pest or weed control at 35 g/ha,[2],95 to 100%
same,pest or weed control at 70 g/ha,[2],95 to 100%
same,pest or weed control at 17.5 g/ha,[3],95 to 100%
same,pest or weed control at 35 g/ha,[3],95 to 100%
same,pest or weed control at 70 g/ha,[3],95 to 100%
same,pest or weed control at 17.5 g/ha,[4],85 to 94%
same,pest or weed control at 35 g/ha,[4],95 to 100%
same,pest or weed control at 70 g/ha,[4],95 to 100%
same,pest or weed control at 17.5 g/ha,[5],30 to 44%
same,pest or weed control at 35 g/ha,[5],60 to 74%
same,pest or weed control at 70 g/ha,[5],60 to 74%
same,pest or weed control at 17.5 g/ha,[6],95 to 100%
same,pest or weed control at 35 g/ha,[6],95 to 100%
same,pest or weed control at 70 g/ha,[6],95 to 100%
same,pest or weed control at 17.5 g/ha,[7],95 to 100%
same,pest or weed control at 35 g/ha,[7],95 to 100%
same,pest or weed control at 70 g/ha,[7],95 to 100%
same,pest or weed control at 17.5 g/ha,[8],0 to 29%
same,pest or weed control at 35 g/ha,[8],0 to 29%
same,pest or weed control at 70 g/ha,[8],0 to 29%
same,pest or weed control at 17.5 g/ha,[9],85 to 94%
same,pest or weed control at 35 g/ha,[9],95 to 100%
same,pest or weed control at 70 g/ha,[9],95 to 100%
same,pest or weed control at 17.5 g/ha,[10],85 to 94%
same,pest or weed control at 35 g/ha,[10],85 to 94%
same,pest or weed control at 70 g/ha,[10],95 to 100%
same,pest or weed control at 17.5 g/ha,[11],95 to 100%
same,pest or weed control at 35 g/ha,[11],95 to 100%
same,pest or weed control at 70 g/ha,[11],95 to 100%
same,pest or weed control at 17.5 g/ha,[12],0 to 29%
same,pest or weed control at 35 g/ha,[12],95 to 100%
same,pest or weed control at 70 g/ha,[12],95 to 100%
